Test results: ChEMBL document CHEMBL1149492, “Discovery of potent and stable conformationally constrained analogues of the MCH R1 antagonist SB-568849” (Bioorg Med Chem Lett, 2006); call rule not given here

How the values were obtained:
[1] = Stability in aqueous phosphate buffer at pH 7; type: physicochemical
[2] = target: Melanin-concentrating hormone receptor 1 (Homo sapiens, UniProt Q99705); assay: Displacement of radiolabeled iodo-MCH from human MCHR1 expressed in HEK293 cells; type: cell-based
Sequence of Melanin-concentrating hormone receptor 1 (Q99705 whole entry): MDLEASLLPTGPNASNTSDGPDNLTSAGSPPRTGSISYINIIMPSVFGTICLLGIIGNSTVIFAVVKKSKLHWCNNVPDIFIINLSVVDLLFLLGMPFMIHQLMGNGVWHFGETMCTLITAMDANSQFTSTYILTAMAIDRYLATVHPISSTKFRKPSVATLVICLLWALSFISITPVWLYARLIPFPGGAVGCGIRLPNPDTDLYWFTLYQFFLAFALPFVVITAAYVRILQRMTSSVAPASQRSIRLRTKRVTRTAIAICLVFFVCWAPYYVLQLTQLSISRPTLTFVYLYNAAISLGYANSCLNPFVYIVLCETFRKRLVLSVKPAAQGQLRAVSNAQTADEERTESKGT

Liver microsomes = assay: Intrinsic clearance in human liver microsome; type: ADME

Row | Ki [2] [nM] | SMILES | also measured
1 |  | COc1cc(N2C(=O)c3ccc(Oc4ccccc4)cc3C2=O)ccc1OCCN1CCCC1 | Activity [1]: Not Active
2 | 1000 | O=C(Nc1ccc(OCCN2CCCC2)cc1)c1ccc2c(c1)CCc1ccccc1-2 | 
3 | 25.1 | COc1cc(-n2nnc3cc(-c4ccccc4)ccc3c2=O)ccc1OCCN1CCCC1 | Stability [1]: Stable; CL (Liver microsomes): < 1.5 mL/min/g
4 | 398 | CC(C)N(CCOc1ccc(N(C)C(=O)c2ccc3c(c2)Cc2ccccc2-3)cc1)C(C)C | 
5 | 20 | COc1cc(-n2cnc3cc(-c4ccccc4)sc3c2=O)ccc1OCCN1CCCC1 | Stability [1]: Stable
6 | 398 | COc1cc(N2Cc3ccc(-c4ccccc4)cc3C2=O)ccc1OCCN(C(C)C)C(C)C | 
7 | 2510 | COc1cc(NC(=O)c2ccc(C3CCCCC3)cc2)ccc1O[C@H]1CCCC[C@@H]1N(C)C | 
8 | 79.4 | CCN1CCN(c2ccc(NC(=O)c3ccc(C4CCCCC4)cc3)cc2OC)CC1 | 
9 | 39.8 | COc1cc(-n2nnc3ccc(Oc4ccccc4)cc3c2=O)ccc1OCCN1CCCC1 | 
10 | 316 | CC(C)N(CCOc1ccc(N(C)C(=O)c2ccc3c(c2)CCc2ccccc2-3)cc1)C(C)C | 
11 | 126 | COc1cc(N2C(=O)c3ccc(-c4ccccc4)cc3C2=O)ccc1OCCN(C(C)C)C(C)C | 
12 | 50.1 | COc1cc(-n2cnc3cc(Oc4ccccc4)ccc3c2=O)ccc1OCCN1CCCC1 | 
13 | 316 | COc1cc(-n2cnc3ccc(Oc4ccccc4)cc3c2=O)ccc1OCCN1CCCC1 | 
14 | 1000 | COc1cc(-n2cnc3ccc(-c4ccc(Cl)cc4)cc3c2=O)ccc1OCCN1CCCC1 | 
15 | 79.4 | COc1cc(-n2nnc3cc(Oc4ccccc4)ccc3c2=O)ccc1OCCN1CCCC1 | 
16 | 50.1 | COc1cc(NC(=O)c2ccc(C3CCCCC3)cc2)ccc1OC12CCCN(CC1)C2 (centres undefined) | 
17 | 39.8 | COc1cc(NC(=O)c2ccc(C3CCCCC3)cc2)ccc1OC[C@@H]1CCCN1C | 
18 | 79.4 | COc1cc(NC(=O)c2ccc(C3CCCCC3)cc2)ccc1OC[C@H]1CCCN1C | 
19 | 501 | O=C(Nc1ccc(OCCN2CCCC2)cc1)c1ccc2c(c1)Cc1ccccc1-2 | 
20 | 2000 | COc1cc(N(C)C(=O)c2ccc3oc4ccccc4c3c2)ccc1OCCN(C(C)C)C(C)C | 
21 | 2510 | O=C(Nc1ccc(OCCN2CCCC2)cc1)c1ccc2oc3ccccc3c2c1 | 
22 | 20 | COc1cc(-n2cnc3cc(-c4ccccc4)ccc3c2=O)ccc1OCCN1CCCC1 | Stability [1]: Stable; CL (Liver microsomes): < 1.5 mL/min/g
23 | 31.6 | COc1cc(N2C(=O)c3ccc(Sc4ccccc4)cc3C2=O)ccc1OCCN1CCCC1 | Activity [1]: Not Active
24 | 200 | CC(C)N(CCOc1ccc(NC(=O)c2ccc3c(c2)C(=O)c2ccccc2-3)cc1)C(C)C | 
25 | 15.8 | COc1cc(N2C(=O)c3ccc(Nc4ccccc4)cc3C2=O)ccc1OCCN1CCCC1 | Activity [1]: Not Active
26 | 63.1 | COc1cc(NC(=O)c2ccc(C3CCCCC3)cc2)ccc1OC1CCN(C)C1 (centres undefined) | 
27 | 794 | COc1cc(-n2cnc3sc(-c4ccccc4)cc3c2=O)ccc1OCCN1CCCC1 | 
